T/C data for 29 compounds are collected here from PubChem BioAssay AID330 (DTP/NCI, 2004).

This test concerns P388 leukemia ip, CD2F1 mice, survival T/C. Put plainly: NCI In Vivo Anticancer Drug Screen. Data for tumor model P388 Leukemia (intraperitoneal) in CD2F1 (CDF1) mice. Conditions: endpoint: median survival time, higher = longer survival. The essentials: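 Mice carrying the transplanted tumor received test compound or vehicle. Survival was recorded in each group, and the value is the treated-group measurement divided by that of the vehicle-treated control group.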

Setting [1] is: dose: 6.25 mg/kg/injection, schedule: Q01DX009 (ip), vehicle: Klucel (hydroxypropylcellulose) (HPC).
The mark [2] stands for this setting: dose: 12.5 mg/kg/injection, schedule: Q01DX009 (ip), vehicle: Klucel (hydroxypropylcellulose) (HPC).
[3] abbreviates: dose: 50.0 mg/kg/injection, schedule: Q01DX009 (ip), vehicle: Klucel (hydroxypropylcellulose) (HPC).
[4] abbreviates: dose: 100.0 mg/kg/injection, schedule: Q01DX009 (ip), vehicle: Klucel (hydroxypropylcellulose) (HPC).
[5] abbreviates: dose: 50.0 mg/kg/injection, schedule: Q01DX005 (ip), vehicle: saline with Tween-80.
The mark [6] stands for this setting: dose: 100.0 mg/kg/injection, schedule: Q01DX005 (ip), vehicle: saline with Tween-80.
The mark [7] stands for this setting: dose: 200.0 mg/kg/injection, schedule: Q01DX005 (ip), vehicle: saline with Tween-80.
Setting [8] is: dose: 50.0 mg/kg/injection, schedule: Q01DX005 (ip), vehicle: Klucel (hydroxypropylcellulose) (HPC).
[9] abbreviates: dose: 100.0 mg/kg/injection, schedule: Q01DX005 (ip), vehicle: Klucel (hydroxypropylcellulose) (HPC).
Where [10] appears, read: dose: 200.0 mg/kg/injection, schedule: Q01DX005 (ip), vehicle: Klucel (hydroxypropylcellulose) (HPC).
The mark [11] stands for this setting: dose: 60.0 mg/kg/injection, schedule: Q01DX005 (ip), vehicle: saline with Tween-80.
The mark [12] stands for this setting: dose: 120.0 mg/kg/injection, schedule: Q01DX005 (ip), vehicle: saline with Tween-80.
[13] abbreviates: dose: 240.0 mg/kg/injection, schedule: Q01DX005 (ip), vehicle: saline with Tween-80.
Where [14] appears, read: dose: 100.0 mg/kg/injection, schedule: Q04DX002 (ip), vehicle: saline with Tween-80.
[15] abbreviates: dose: 200.0 mg/kg/injection, schedule: Q04DX002 (ip), vehicle: saline with Tween-80.
[16] abbreviates: dose: 25.0 mg/kg/injection, schedule: Q01DX009 (ip), vehicle: saline.
The mark [17] stands for this setting: dose: 50.0 mg/kg/injection, schedule: Q01DX009 (ip), vehicle: saline.

Values joined by “and” are separate entries in the source; they are usually repeats but may differ in a detail not shown here. Equal entries are not always repeated. Toxic doses and inconclusive results are not listed.

Take `O=C(NC1CCCCC1)OCc1c(COC(=O)NC2CCCCC2)c(-c2ccc(Cl)c(Cl)c2)n2c1CCC2`: the T/C by setting is: under setting [1], 94 % of control; under setting [2], 119 % of control; (dose: 25.0 mg/kg/injection, schedule: Q01DX009 (ip), vehicle: saline with Tween-80) 150 % of control and 168 % of control; under setting [3], 161 % of control; (dose: 50.0 mg/kg/injection, schedule: Q01DX009 (ip), vehicle: saline with Tween-80) 166 % of control and 170 % of control and 174 % of control; under setting [4], 189 % of control. The T/C (dose: 200.0 mg/kg/injection, schedule: Q01DX009 (ip), vehicle: saline with Tween-80) was 91 % of control.

`CN(Cc1c(O)ccc2ccccc12)Cc1c(O)ccc2ccccc12`: the T/C was 97 % of control under setting [5], 109 % of control under setting [6] and 100 % of control under setting [7].

Turning to `CC(C)(C)c1cc(C(O)(C(F)(F)F)C(F)(F)F)c2c(c1)C(C(F)(F)F)(C(F)(F)F)OS2(=O)=O`, the T/C runs as follows: (dose: 25.0 mg/kg/injection, schedule: Q01DX005 (ip), vehicle: Klucel (hydroxypropylcellulose) (HPC)) 93 % of control; under setting [8], 103 % of control; under setting [9], 92 % of control; under setting [10], 91 % of control.

Turning to `CC(=O)OCCOCn1cc(C)[n+]([O-])nc1=O`, the T/C runs as follows: under setting [11], 100 % of control; under setting [12], 94 % of control; under setting [13], 95 % of control.

Take `Cc1[nH]c2ccc(N(C)C)cc2c(=O)c1CN(C)C`: the T/C under setting [3] was 105 % of control and the T/C under setting [4] is 108 % of control.

`COc1ccc(N=N/N=c2\sc3cc(Cl)ccc3n2C)cc1`: the T/C by setting is: (dose: 7.5 mg/kg/injection, schedule: Q01DX005 (ip), vehicle: saline with Tween-80) 115 % of control; (dose: 15.0 mg/kg/injection, schedule: Q01DX005 (ip), vehicle: saline with Tween-80) 113 % of control and 121 % of control; (dose: 30.0 mg/kg/injection, schedule: Q01DX005 (ip), vehicle: saline with Tween-80) 115 % of control and 124 % of control; under setting [11], 112 % of control.

As for `CCCCCc1nc(N)nc(-c2nc(N)nc(CCCCC)c2C)c1C`, the T/C runs as follows: (dose: 60.0 mg/kg/injection, schedule: Q01DX005 (ip), vehicle: saline) 96 % of control; (dose: 120.0 mg/kg/injection, schedule: Q01DX005 (ip), vehicle: saline) 100 % of control.

Turning to `Cc1ccnc(-n2c(N)cc(=O)[nH]c2=S)c1`, the T/C by setting is: (dose: 50.0 mg/kg/injection, schedule: Q01DX001 (ip), vehicle: saline with Tween-80) 86 % of control; (dose: 100.0 mg/kg/injection, schedule: Q01DX001 (ip), vehicle: saline with Tween-80) 118 % of control; (dose: 200.0 mg/kg/injection, schedule: Q01DX001 (ip), vehicle: saline with Tween-80) 100 % of control.

Consider `CCc1nc(N)nc(N)c1-c1ccc2nnn(O)c2c1`, for which the T/C by setting is: under setting [8], 98 % of control; under setting [9], 96 % of control; under setting [10], 105 % of control.

Take `O=C1c2ccccc2C(=O)N1CCn1[nH]c(=O)c2ccccc2c1=O`: the T/C under setting [11] is 99 % of control, the T/C under setting [12] is 90 % of control and the T/C under setting [13] was 96 % of control.

Consider `Cc1ccc(C2(c3ccccc3)OC(=O)c3ccccc32)cc1` (configuration not stated), for which, where the note is “dose: 200.0 mg/kg/injection, schedule: Q01DX009 (ip), vehicle: saline sonified”, the T/C was 95 % of control.

Take `COC(=O)C1CCCN1C(=O)c1ccccc1` (configuration not stated): the T/C is 114 % of control under setting [5], 93 % of control under setting [6] and 100 % of control under setting [7].

As to `CN1CCC(O)(c2ccccc2)C(O)C1` (configuration not stated), the T/C is 95 % of control under setting [5], 93 % of control under setting [6] and 90 % of control under setting [7].

In the case of `S=c1ncnc2c1ccc1[nH][nH]cc12`, the T/C is, setting by setting: under setting [14], 88 % of control; under setting [15], 92 % of control; (dose: 400.0 mg/kg/injection, schedule: Q04DX002 (ip), vehicle: saline with Tween-80) 107 % of control.

In the case of `Cc1cc(=O)oc2c1c(=O)[nH]n2-c1ccccc1`, the T/C runs as follows: under setting [8], 95 % of control; under setting [9], 87 % of control; under setting [10], 86 % of control.

For `COc1ccc(C(c2c(O)c3ccccc3oc2=O)c2c(O)c3ccccc3oc2=O)c(OC)c1`, the T/C reads like this: under setting [11], 106 % of control; under setting [12], 98 % of control; under setting [13], 94 % of control.

As for `CCOS(=O)(=O)c1ccc([N+](=O)[O-])cc1`, the T/C is 95 % of control (dose: 12.5 mg/kg/injection, schedule: Q01DX009 (ip), vehicle: saline); 100 % of control under setting [16]; 98 % of control under setting [17]; 100 % of control and 90 % of control (dose: 100.0 mg/kg/injection, schedule: Q01DX009 (ip), vehicle: saline).

On to `CCCCN(CCCC)CCC(=O)OCC`, for which the T/C was 104 % of control (dose: 100.0 mg/kg/injection, schedule: Q04DX003 (ip), vehicle: saline with Tween-80); 100 % of control (dose: 200.0 mg/kg/injection, schedule: Q04DX003 (ip), vehicle: saline with Tween-80); 109 % of control (dose: 400.0 mg/kg/injection, schedule: Q04DX003 (ip), vehicle: saline with Tween-80).

For the compound `COc1cc2ccc3c[n+](C)ccc3c2cc1OC`, the T/C reads like this: (dose: 6.25 mg/kg/injection, schedule: Q01DX009 (ip), vehicle: water) 101 % of control and 103 % of control; (dose: 12.5 mg/kg/injection, schedule: Q01DX009 (ip), vehicle: other) 107 % of control; (dose: 12.5 mg/kg/injection, schedule: Q01DX009 (ip), vehicle: water) 114 % of control; (dose: 25.0 mg/kg/injection, schedule: Q01DX009 (ip), vehicle: other) 119 % of control; (dose: 25.0 mg/kg/injection, schedule: Q01DX009 (ip), vehicle: water) 116 % of control and 122 % of control; (dose: 100.0 mg/kg/injection, schedule: Q01DX009 (ip), vehicle: water) 108 % of control.

Turning to `O=c1[nH]c2n[nH]c(=S)n2c2c1CCCC2`, the T/C reads like this: (dose: 50.0 mg/kg/injection, schedule: Q04DX002 (ip), vehicle: saline with Tween-80) 99 % of control; under setting [14], 97 % of control; under setting [15], 99 % of control.

On to `O=S1(=O)NC(=NC2CCCC2)c2ccccc21`, for which the T/C by setting is: under setting [5], 111 % of control; under setting [6], 102 % of control; under setting [7], 101 % of control.

Regarding `O=C1c2ccccc2C(=O)c2c(O)c(NCCCN(CCO)CCO)cc(O)c21`, the T/C under setting [5] was 101 % of control, the T/C under setting [6] was 109 % of control and the T/C under setting [7] was 113 % of control.

For the compound `CC1=C(C#N)C(=O)NC1(C)O` (configuration not stated), the T/C was 98 % of control and 95 % of control under setting [8]; 100 % of control under setting [9]; 100 % of control and 101 % of control under setting [10].

On to `CCN(CC)CCC(=O)/C=C/c1ccccc1`, for which the T/C is, setting by setting: under setting [16], 111 % of control; under setting [17], 116 % of control and 118 % of control.

In the case of `CC(C)C(=O)N1CCCCCCN1C(=O)C(C)C`, the T/C under setting [4] is 107 % of control and the T/C (dose: 200.0 mg/kg/injection, schedule: Q01DX009 (ip), vehicle: Klucel (hydroxypropylcellulose) (HPC)) was 111 % of control.

Consider `CC[C@H](CC[C@@H](C)[C@H]1CC[C@H]2[C@@H]3CC=C4C[C@@H](OC(C)=O)CC[C@]4(C)[C@H]3CC[C@]12C)C(C)C`, for which the T/C was 99 % of control and 110 % of control under setting [1]; 105 % of control and 107 % of control under setting [2]; 104 % of control and 92 % of control (dose: 25.0 mg/kg/injection, schedule: Q01DX009 (ip), vehicle: Klucel (hydroxypropylcellulose) (HPC)); 98 % of control and 105 % of control under setting [3]; 100 % of control and 92 % of control (dose: 75.0 mg/kg/injection, schedule: Q01DX009 (ip), vehicle: Klucel (hydroxypropylcellulose) (HPC)).

For the compound `O=c1oc2ccccc2n1Cc1ccc(Cl)cc1`, the T/C (dose: 6.25 mg/kg/injection, schedule: Q01DX005 (ip), vehicle: saline with Tween-80) was 102 % of control; the T/C (dose: 12.5 mg/kg/injection, schedule: Q01DX005 (ip), vehicle: saline with Tween-80) is 93 % of control; the T/C (dose: 25.0 mg/kg/injection, schedule: Q01DX005 (ip), vehicle: saline with Tween-80) is 99 % of control.

`ClC(Cl)(Cl)C(c1ccc(Br)cc1)c1ccc(Br)cc1`: the T/C under setting [11] is 95 % of control, the T/C under setting [12] is 94 % of control and the T/C under setting [13] is 95 % of control.

With `O=[N+]([O-])c1ccc(O)c(/C=N\NS(=O)(=O)c2ccc(F)cc2)c1`, the T/C under setting [5] is 103 % of control and the T/C under setting [6] was 93 % of control.
